In PubChem BioAssay (NCI):
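Interpolation was linear, between the two tested concentrations surrounding the appropriate level; five concentrations were tested over 48 hours in 96-well plates. At the TGI there is no net growth.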

Assays:
Test in all cases: NCI anticancer screen, dose series, 48 h
KM12 colon = system: KM12 colon
RXF-631 renal = system: RXF-631 renal
RXF 393 renal = system: RXF 393 renal
K-562 leukemia = system: K-562 leukemia
SK-MEL-2 melanoma = system: SK-MEL-2 melanoma
IGROV1 ovarian = system: IGROV1 ovarian
HL-60(TB) leukemia = system: HL-60(TB) leukemia
TK-10 renal = system: TK-10 renal
CCRF-CEM leukemia = system: CCRF-CEM leukemia
SF-539 CNS = system: SF-539 CNS
SF-268 CNS = system: SF-268 CNS
HOP-62 NSCLC = system: HOP-62 NSCLC
XF 498 CNS = system: XF 498 CNS
SK-MEL-5 melanoma = system: SK-MEL-5 melanoma
SNB-19 CNS = system: SNB-19 CNS
HOP-92 NSCLC = system: HOP-92 NSCLC
NCI-H460 lung = system: NCI-H460 lung
NCI-H522 lung = system: NCI-H522 lung
OVCAR-4 ovarian = system: OVCAR-4 ovarian
SN12C renal = system: SN12C renal
786-0 renal = system: 786-0 renal
OVCAR-5 ovarian = system: OVCAR-5 ovarian
M19-MEL melanoma = system: M19-MEL melanoma
SW-620 colon = system: SW-620 colon
RPMI-8226 leukemia = system: RPMI-8226 leukemia
M14 melanoma = system: M14 melanoma
UACC-62 melanoma = system: UACC-62 melanoma
SNB-75 CNS = system: SNB-75 CNS
HT29 colon = system: HT29 colon
SK-MEL-28 melanoma = system: SK-MEL-28 melanoma
UO-31 renal = system: UO-31 renal
OVCAR-3 ovarian = system: OVCAR-3 ovarian
MALME-3M melanoma = system: MALME-3M melanoma
EKVX NSCLC = system: EKVX NSCLC
COLO 205 colon = system: COLO 205 colon
LOX IMVI melanoma = system: LOX IMVI melanoma
U251 CNS = system: U251 CNS
OVCAR-8 ovarian = system: OVCAR-8 ovarian
HOP-18 NSCLC = system: HOP-18 NSCLC
UACC-257 melanoma = system: UACC-257 melanoma
A498 renal = system: A498 renal
CAKI-1 renal = system: CAKI-1 renal
NCI-H226 lung = system: NCI-H226 lung
LXFL 529 NSCLC = system: LXFL 529 NSCLC
HCT-15 colon = system: HCT-15 colon
DMS 114 small cell lung = system: DMS 114 small cell lung
KM20L2 colon = system: KM20L2 colon
SF-295 CNS = system: SF-295 CNS
SK-OV-3 ovarian = system: SK-OV-3 ovarian
ACHN renal = system: ACHN renal
A549 NSCLC = system: A549 NSCLC
MOLT-4 leukemia = system: MOLT-4 leukemia
NCI-H23 lung = system: NCI-H23 lung
DMS 273 small cell lung = system: DMS 273 small cell lung
HCC-2998 colon = system: HCC-2998 colon
DLD-1 colon = system: DLD-1 colon
HCT-116 colon = system: HCT-116 colon
SR leukemia = system: SR leukemia

Question: `C=CCN(N=O)C(=O)NCCCC(NC(C)=O)C(=O)NCc1ccccc1` (centres undefined) was tested. Which TGI (KM12 colon) did it give?
Answer: Its TGI is > 100 µM.

Question: What about the TGI (RXF-631 renal) of the same compound?
Answer: The TGI was > 100 µM.

Question: What about the TGI (RXF 393 renal) of the same compound?
Answer: The TGI was > 100 µM.

Question: What about the TGI (K-562 leukemia) of the same compound?
Answer: Its TGI is > 100 µM.

Question: What about the TGI (SK-MEL-2 melanoma) of the same compound?
Answer: Its TGI is > 100 µM.

Question: What about the TGI (IGROV1 ovarian) of the same compound?
Answer: The TGI was > 100 µM.

Question: And the TGI (HL-60(TB) leukemia)?
Answer: Its TGI is > 100 µM.

Question: And the TGI (TK-10 renal)?
Answer: The TGI was > 100 µM.

Question: What about the TGI (CCRF-CEM leukemia) of the same compound?
Answer: The TGI was > 100 µM.

Question: What about the TGI (SF-539 CNS) of the same compound?
Answer: The TGI was > 100 µM.

Question: And the TGI (SF-268 CNS)?
Answer: Its TGI is > 100 µM.

Question: And the TGI (HOP-62 NSCLC)?
Answer: The TGI was > 100 µM.

Question: And the TGI (XF 498 CNS)?
Answer: Its TGI is > 100 µM.

Question: And the TGI (SK-MEL-5 melanoma)?
Answer: The TGI was > 100 µM.

Question: And the TGI (SNB-19 CNS)?
Answer: The TGI was > 100 µM.

Question: And the TGI (HOP-92 NSCLC)?
Answer: The TGI was > 100 µM.

Question: And the TGI (NCI-H460 lung)?
Answer: Its TGI is > 100 µM.

Question: What about the TGI (NCI-H522 lung) of the same compound?
Answer: The TGI was > 100 µM.

Question: What about the TGI (OVCAR-4 ovarian) of the same compound?
Answer: The TGI was > 100 µM.

Question: And the TGI (SN12C renal)?
Answer: Its TGI is > 100 µM.

Question: And the TGI (786-0 renal)?
Answer: Its TGI is > 100 µM.

Question: What about the TGI (OVCAR-5 ovarian) of the same compound?
Answer: Its TGI is > 100 µM.

Question: What about the TGI (M19-MEL melanoma) of the same compound?
Answer: The TGI was > 100 µM.

Question: And the TGI (SW-620 colon)?
Answer: Its TGI is > 100 µM.

Question: What about the TGI (RPMI-8226 leukemia) of the same compound?
Answer: Its TGI is > 100 µM.

Question: What about the TGI (M14 melanoma) of the same compound?
Answer: Its TGI is > 100 µM.

Question: What about the TGI (UACC-62 melanoma) of the same compound?
Answer: The TGI was > 100 µM.

Question: What about the TGI (SNB-75 CNS) of the same compound?
Answer: Its TGI is > 100 µM.

Question: And the TGI (HT29 colon)?
Answer: Its TGI is > 100 µM.

Question: And the TGI (SK-MEL-28 melanoma)?
Answer: The TGI was > 100 µM.

Question: And the TGI (UO-31 renal)?
Answer: The TGI was > 100 µM.

Question: And the TGI (OVCAR-3 ovarian)?
Answer: Its TGI is > 100 µM.

Question: What about the TGI (MALME-3M melanoma) of the same compound?
Answer: Its TGI is > 100 µM.

Question: What about the TGI (EKVX NSCLC) of the same compound?
Answer: The TGI was > 100 µM.

Question: What about the TGI (COLO 205 colon) of the same compound?
Answer: The TGI was > 100 µM.

Question: And the TGI (LOX IMVI melanoma)?
Answer: Its TGI is > 100 µM.

Question: What about the TGI (U251 CNS) of the same compound?
Answer: Its TGI is > 100 µM.

Question: And the TGI (OVCAR-8 ovarian)?
Answer: The TGI was > 100 µM.

Question: And the TGI (HOP-18 NSCLC)?
Answer: Its TGI is > 100 µM.

Question: What about the TGI (UACC-257 melanoma) of the same compound?
Answer: Its TGI is > 100 µM.

Question: And the TGI (A498 renal)?
Answer: The TGI was > 100 µM.

Question: And the TGI (CAKI-1 renal)?
Answer: The TGI was > 100 µM.

Question: And the TGI (NCI-H226 lung)?
Answer: Its TGI is > 100 µM.

Question: What about the TGI (LXFL 529 NSCLC) of the same compound?
Answer: Its TGI is > 100 µM.

Question: And the TGI (HCT-15 colon)?
Answer: Its TGI is > 100 µM.

Question: What about the TGI (DMS 114 small cell lung) of the same compound?
Answer: Its TGI is > 100 µM.

Question: And the TGI (KM20L2 colon)?
Answer: The TGI was > 100 µM.

Question: And the TGI (SF-295 CNS)?
Answer: The TGI was > 100 µM.

Question: And the TGI (SK-OV-3 ovarian)?
Answer: Its TGI is > 100 µM.

Question: What about the TGI (ACHN renal) of the same compound?
Answer: The TGI was > 100 µM.

Question: And the TGI (A549 NSCLC)?
Answer: The TGI was > 100 µM.

Question: What about the TGI (MOLT-4 leukemia) of the same compound?
Answer: Its TGI is > 100 µM.

Question: And the TGI (NCI-H23 lung)?
Answer: The TGI was > 100 µM.

Question: What about the TGI (DMS 273 small cell lung) of the same compound?
Answer: The TGI was > 100 µM.

Question: What does the source list for `O=c1oc2c3ccc4ccccc4c3n(CCCN3CCCCC3)c2c2ccccc12`?
Answer: TGI (KM12 colon): > 100 µM; TGI (RXF-631 renal): > 100 µM; TGI (K-562 leukemia): 63.9 µM; TGI (HCC-2998 colon): > 100 µM; TGI (SK-MEL-2 melanoma): > 100 µM; TGI (IGROV1 ovarian): > 100 µM; TGI (HL-60(TB) leukemia): 42.9 µM; TGI (TK-10 renal): > 100 µM; TGI (CCRF-CEM leukemia): > 100 µM; TGI (SF-539 CNS): 40.8 µM; TGI (DLD-1 colon): > 100 µM; TGI (SF-268 CNS): > 100 µM; TGI (HOP-62 NSCLC): > 100 µM; TGI (XF 498 CNS): > 100 µM; TGI (SNB-19 CNS): > 100 µM; TGI (HOP-92 NSCLC): > 100 µM; TGI (NCI-H460 lung): > 100 µM; TGI (NCI-H522 lung): > 100 µM; TGI (OVCAR-4 ovarian): > 100 µM; TGI (786-0 renal): 37.2 µM; TGI (OVCAR-5 ovarian): > 100 µM; TGI (M19-MEL melanoma): > 100 µM; TGI (SW-620 colon): > 100 µM; TGI (RPMI-8226 leukemia): > 100 µM; TGI (M14 melanoma): 24.2 µM; TGI (UACC-62 melanoma): > 100 µM; TGI (SNB-75 CNS): > 100 µM; TGI (HCT-116 colon): > 100 µM; TGI (HT29 colon): > 100 µM; TGI (SK-MEL-28 melanoma): 50.3 µM; TGI (UO-31 renal): > 100 µM; TGI (OVCAR-3 ovarian): > 100 µM; TGI (MALME-3M melanoma): 41 µM; TGI (EKVX NSCLC): > 100 µM; TGI (COLO 205 colon): > 100 µM; TGI (LOX IMVI melanoma): > 100 µM; TGI (OVCAR-8 ovarian): > 100 µM; TGI (HOP-18 NSCLC): > 100 µM; TGI (UACC-257 melanoma): > 100 µM; TGI (CAKI-1 renal): > 100 µM; TGI (LXFL 529 NSCLC): > 100 µM; TGI (HCT-15 colon): > 100 µM; TGI (DMS 114 small cell lung): > 100 µM; TGI (KM20L2 colon): > 100 µM; TGI (SF-295 CNS): > 100 µM; TGI (SK-OV-3 ovarian): > 100 µM; TGI (ACHN renal): > 100 µM; TGI (A549 NSCLC): > 100 µM; TGI (MOLT-4 leukemia): > 100 µM; TGI (SR leukemia): > 100 µM
